Experiments:
[1] = target: intracellular GCN2 (phosphorylation of the GCN2 substrate eIF2α) (Homo sapiens, UniProt Q9P2K8); assay: GCN2 cellular inhibition assay (AlphaScreen SureFire P-eIF2α Ser51, borrelidin-treated U2OS cells); format: cell-based; conditions: compounds of Formula IV; biomarker assay, phosphorylated eIF2α Ser51 in borrelidin-treated U2OS cells
How it was run: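 Read-out: AlphaScreen SureFire phospho-eIF2α (Ser51) signal in U2OS lysates. Cells get 4-fold compound dilutions (top 40 μM final) plus 10 μM borrelidin, 1 h, 37 °C. Percent inhibition is relative to borrelidin-alone controls.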

GCN2 kinase = GCN2 kinase (Homo sapiens, UniProt Q9P2K8); assay: GCN2 enzyme inhibition assay (Transcreener ADP2 fluorescence polarization); format: biochemical; conditions: Enzyme activity for compounds of Formula IV; Ki(app), 280 μM ATP, 25° C.
How it was run: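 Kinase activity is followed as ADP formation, measured by fluorescence polarization, using 4 nM enzyme with 280 μM ATP and 200 μM (RS)7 peptide at pH 7.5 and 25 °C for 1 h. Values come from a non-linear tight-binding fit.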

intracellular GCN2 (phosphorylation of the GCN2 substrate eIF2α), sequence (Q9P2K8 whole entry): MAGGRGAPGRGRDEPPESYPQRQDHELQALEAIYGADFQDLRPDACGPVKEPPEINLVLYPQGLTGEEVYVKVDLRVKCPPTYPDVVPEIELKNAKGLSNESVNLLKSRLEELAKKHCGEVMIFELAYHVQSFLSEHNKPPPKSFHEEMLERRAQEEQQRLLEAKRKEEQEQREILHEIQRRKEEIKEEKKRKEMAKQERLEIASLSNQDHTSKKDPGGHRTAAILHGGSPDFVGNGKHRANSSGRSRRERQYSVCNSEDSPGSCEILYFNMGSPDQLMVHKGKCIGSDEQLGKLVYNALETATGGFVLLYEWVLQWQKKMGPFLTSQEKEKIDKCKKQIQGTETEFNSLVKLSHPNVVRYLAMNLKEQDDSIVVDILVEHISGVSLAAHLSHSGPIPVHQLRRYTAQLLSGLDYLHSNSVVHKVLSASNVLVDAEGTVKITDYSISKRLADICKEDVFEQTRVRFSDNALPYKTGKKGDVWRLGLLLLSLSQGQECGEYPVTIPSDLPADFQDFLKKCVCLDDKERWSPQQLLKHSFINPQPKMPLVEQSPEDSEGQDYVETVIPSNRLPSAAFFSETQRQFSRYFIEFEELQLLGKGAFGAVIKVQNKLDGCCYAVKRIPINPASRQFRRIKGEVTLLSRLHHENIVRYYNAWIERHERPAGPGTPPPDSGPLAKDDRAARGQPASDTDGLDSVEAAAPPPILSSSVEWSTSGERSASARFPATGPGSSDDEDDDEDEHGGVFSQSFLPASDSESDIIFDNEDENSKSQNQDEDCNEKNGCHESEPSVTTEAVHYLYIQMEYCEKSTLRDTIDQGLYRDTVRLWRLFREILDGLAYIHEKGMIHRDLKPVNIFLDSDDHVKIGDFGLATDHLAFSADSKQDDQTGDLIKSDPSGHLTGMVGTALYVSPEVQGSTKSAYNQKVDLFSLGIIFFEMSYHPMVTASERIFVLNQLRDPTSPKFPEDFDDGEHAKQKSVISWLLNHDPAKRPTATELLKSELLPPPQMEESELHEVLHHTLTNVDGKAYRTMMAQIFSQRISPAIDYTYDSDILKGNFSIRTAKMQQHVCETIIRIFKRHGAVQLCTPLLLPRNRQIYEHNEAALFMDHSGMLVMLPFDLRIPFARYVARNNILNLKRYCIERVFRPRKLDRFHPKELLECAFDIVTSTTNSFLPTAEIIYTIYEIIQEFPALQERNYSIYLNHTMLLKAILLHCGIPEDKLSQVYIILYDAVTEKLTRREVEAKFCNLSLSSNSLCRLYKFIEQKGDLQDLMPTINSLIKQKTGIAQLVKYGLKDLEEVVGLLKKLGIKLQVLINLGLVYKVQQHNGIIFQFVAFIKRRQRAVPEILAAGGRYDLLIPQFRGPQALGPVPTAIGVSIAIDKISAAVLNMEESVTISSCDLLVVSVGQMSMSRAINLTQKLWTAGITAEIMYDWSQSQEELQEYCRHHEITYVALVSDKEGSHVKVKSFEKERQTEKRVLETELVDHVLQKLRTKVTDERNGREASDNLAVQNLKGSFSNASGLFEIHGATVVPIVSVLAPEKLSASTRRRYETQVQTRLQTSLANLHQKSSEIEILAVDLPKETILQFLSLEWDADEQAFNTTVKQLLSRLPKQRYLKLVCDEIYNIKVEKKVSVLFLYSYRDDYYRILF
GCN2 kinase, sequence (Q9P2K8 whole entry): as above

Compound: CNS(=O)(=O)C1CCN(c2ccnc(-c3cnc4cnc(C(F)F)cn34)n2)C1 (stereo not drawn) [IV-71, 1-(2-(6-(Difluoromethyl)imidazo[1,2-a]pyrazin-3-yl)pyrimidin-4-yl)-N-methylpyrrolidine-3-sulfonamide]
- IC50 [1]: > 5 µM
- Ki (GCN2 kinase): 0.1 to 1 µM

Compound: OC1CCN(c2ccnc(-c3cnc4cnc(C(F)F)cn34)n2)C1 (stereo not drawn) [IV-72, 1-(2-(6-(Difluoromethyl)imidazo[1,2-a]pyrazin-3-yl)pyrimidin-4-yl)pyrrolidin-3-ol]
- IC50 [1]: > 5 µM
- Ki (GCN2 kinase): 0.1 to 1 µM

Compound: FC(F)c1cn2c(-c3nccc(N4CCC(C5COC5)C4)n3)cnc2cn1 (stereo not drawn) [IV-73, 6-(Difluoromethyl)-3-(4-(3-(oxetan-3-yl)pyrrolidin-1-yl)pyrimidin-2-yl)imidazo[1,2-a]pyrazine]
- IC50 [1]: > 5 µM
- Ki (GCN2 kinase): 0.1 to 1 µM

Compound: NS(=O)(=O)NCC1CCCN(c2ccnc(-c3cnc4cnc(C(F)F)cn34)n2)C1 (stereo not drawn) [IV-74, 6-(Difluoromethyl)-3-[4-[3-[(sulfamoylamino)methyl]-1-piperidyl]pyrimidin-2-yl]imidazo[1,2-a]pyrazine]
- IC50 [1]: > 5 µM
- Ki (GCN2 kinase): 0.1 to 1 µM

Compound: FC(F)c1cn2c(-c3nccc(N4CCC5(CCC5)C4)n3)cnc2cn1 [IV-75, 3-[4-(6-Azaspiro[3.4]octan-6-yl)pyrimidin-2-yl]-6-(difluoromethyl)imidazo[1,2-a]pyrazine]
- IC50 [1]: > 5 µM
- Ki (GCN2 kinase): 0.1 to 1 µM

Compound: FC(F)c1cn2c(-c3nccc(N4CCC(c5cccnc5)C4)n3)cnc2cn1 (stereo not drawn) [IV-76, 6-(Difluoromethyl)-3-(4-(3-(pyridin-3-yl)pyrrolidin-1-yl)pyrimidin-2-yl)imidazo[1,2-a]pyrazine]
- IC50 [1]: > 5 µM
- Ki (GCN2 kinase): 0.1 to 1 µM

Compound: FC(F)c1cn2c(-c3nccc(N4CCC(c5ccccn5)C4)n3)cnc2cn1 (stereo not drawn) [IV-77, 6-(Difluoromethyl)-3-(4-(3-(pyridin-2-yl)pyrrolidin-1-yl)pyrimidin-2-yl)imidazo[1,2-a]pyrazine]
- IC50 [1]: > 5 µM
- Ki (GCN2 kinase): 0.1 to 1 µM

Compound: CC(=O)N1CCN(c2ccnc(-c3cnc4cnc(C(C)(F)F)cn34)n2)CC1 [IV-78, 1-(4-(2-(6-(1,1-Difluoroethyl)imidazo[1,2-a]pyrazin-3-yl)pyrimidin-4-yl)piperazin-1-yl)ethan-1-one]
- IC50 [1]: > 5 µM
- Ki (GCN2 kinase): 0.1 to 1 µM

Compound: C[C@H]1COCCN1c1ccnc(-c2cnc3cnc(C(F)F)cn23)n1 [IV-81, (S)-4-(2-(6-(Difluoromethyl)imidazo[1,2-a]pyrazin-3-yl)pyrimidin-4-yl)-3-methylmorpholine]
- IC50 [1]: > 5 µM
- Ki (GCN2 kinase): 0.1 to 1 µM

Compound: N#CCC1CCCN(c2ccnc(-c3cnc4cnc(C(F)F)cn34)n2)C1 (stereo not drawn) [IV-82, 2-(1-(2-(6-(Difluoromethyl)imidazo[1,2-a]pyrazin-3-yl)pyrimidin-4-yl)piperidin-3-yl)acetonitrile]
- IC50 [1]: > 5 µM
- Ki (GCN2 kinase): 0.1 to 1 µM

Compound: O=c1[nH]nc2n1CCN(c1ccnc(-c3cnc4cnc(C(F)F)cn34)n1)C2 [IV-83, 7-(2-(6-(Difluoromethyl)imidazo[1,2-a]pyrazin-3-yl)pyrimidin-4-yl)-5,6,7,8-tetrahydro-[1,2,4]triazolo[4,3-a]pyrazin-3 (2H)-one]
- IC50 [1]: > 5 µM
- Ki (GCN2 kinase): 0.1 to 1 µM

Compound: C[C@H]1CCCCN1c1ccnc(-c2cnc3cnc(C(F)F)cn23)n1 [IV-85, (S)-6-(Difluoromethyl)-3-(4-(2-methylpiperidin-1-yl)pyrimidin-2-yl)imidazo[1,2-a]pyrazine]
- IC50 [1]: > 5 µM
- Ki (GCN2 kinase): 0.1 to 1 µM

Compound: O=C1NCCN2CCN(c3ccnc(-c4cnc5cnc(C(F)F)cn45)n3)CC12 (stereo not drawn) [IV-86, 8-(2-(6-(Difluoromethyl)imidazo[1,2-a]pyrazin-3-yl)pyrimidin-4-yl)hexahydro-2H-pyrazino[1,2-a]pyrazin-1(6H)-one]
- IC50 [1]: > 5 µM
- Ki (GCN2 kinase): 0.1 to 1 µM

Compound: O=C1NCC2(CCCN(c3ccnc(-c4cnc5cnc(C(F)F)cn45)n3)CC2)O1 (stereo not drawn) [IV-87, 8-(2-(6-(Difluoromethyl)imidazo[1,2-a]pyrazin-3-yl)pyrimidin-4-yl)-1-oxa-3,8-diazaspiro[4.6]undecan-2-one]
- IC50 [1]: > 5 µM
- Ki (GCN2 kinase): 0.1 to 1 µM

Compound: OCC1CCCCN(c2ccnc(-c3cnc4cnc(C(F)F)cn34)n2)C1 (stereo not drawn) [IV-88, (1-(2-(6-(Difluoromethyl)imidazo[1,2-a]pyrazin-3-yl)pyrimidin-4-yl)azepan-3-yl)methanol]
- IC50 [1]: > 5 µM
- Ki (GCN2 kinase): 0.1 to 1 µM

Compound: CN1CCN(c2ccnc(-c3cnc4cnc(C(F)F)cn34)n2)CC1C(N)=O (stereo not drawn) [IV-89, 4-(2-(6-(Difluoromethyl)imidazo[1,2-a]pyrazin-3-yl)pyrimidin-4-yl)-1-methylpiperazine-2-carboxamide]
- IC50 [1]: > 5 µM
- Ki (GCN2 kinase): 0.1 to 1 µM

Compound: CC1(O)CCCN(c2ccnc(-c3cnc4cnc(C(F)F)cn34)n2)CC1 (stereo not drawn) [IV-90, 1-(2-(6-(Difluoromethyl)imidazo[1,2-a]pyrazin-3-yl)pyrimidin-4-yl)-4-methylazepan-4-ol]
- IC50 [1]: > 5 µM
- Ki (GCN2 kinase): 0.1 to 1 µM

Compound: FC(F)c1cn2c(-c3nccc(N4CC5CCC(C4)O5)n3)cnc2cn1 [IV-91, 3-(2-(6-(Difluoromethyl)imidazo[1,2-a]pyrazin-3-yl)pyrimidin-4-yl)-8-oxa-3-azabicyclo[3.2.1]octane]
- IC50 [1]: > 5 µM
- Ki (GCN2 kinase): 0.1 to 1 µM

Compound: OCCc1cc(C2CCCN(c3ccnc(-c4cnc5cnc(C(F)F)cn45)n3)C2)n[nH]1 (stereo not drawn) [IV-92, 2-(3-(1-(2-(6-(Difluoromethyl)imidazo[1,2-a]pyrazin-3-yl)pyrimidin-4-yl)piperidin-3-yl)-1H-pyrazol-5-yl)ethan-1-ol]
- IC50 [1]: > 5 µM
- Ki (GCN2 kinase): 0.1 to 1 µM

Compound: OCc1cc(C2CCCN(c3ccnc(-c4cnc5cnc(C(F)F)cn45)n3)C2)n[nH]1 (stereo not drawn) [IV-93, (3-(1-(2-(6-(Difluoromethyl)imidazo[1,2-a]pyrazin-3-yl)pyrimidin-4-yl)piperidin-3-yl)-1H-pyrazol-5-yl)methanol]
- IC50 [1]: > 5 µM
- Ki (GCN2 kinase): 0.1 to 1 µM

Compound: NC(=O)c1cc(C2CCCN(c3ccnc(-c4cnc5cnc(C(F)F)cn45)n3)C2)n[nH]1 (stereo not drawn) [IV-94, 3-(1-(2-(6-(Difluoromethyl)imidazo[1,2-a]pyrazin-3-yl)pyrimidin-4-yl)piperidin-3-yl)-1H-pyrazole-5-carboxamide]
- IC50 [1]: > 5 µM
- Ki (GCN2 kinase): 0.1 to 1 µM

Compound: CNC(=O)c1cc(C2CCCN(c3ccnc(-c4cnc5cnc(C(F)F)cn45)n3)C2)n[nH]1 (stereo not drawn) [IV-95, 3-(1-(2-(6-(Difluoromethyl)imidazo[1,2-a]pyrazin-3-yl)pyrimidin-4-yl)piperidin-3-yl)-N-methyl-1H-pyrazole-5-carboxamide]
- IC50 [1]: > 5 µM
- Ki (GCN2 kinase): 0.1 to 1 µM

Compound: Cc1n[nH]cc1C1=CCCN(c2ccnc(-c3cnc4cnc(C(F)F)cn34)n2)C1 [IV-96, 6-(Difluoromethyl)-3-(4-(5-(3-methyl-1H-pyrazol-4-yl)-3,6-dihydropyridin-1 (2H)-yl)pyrimidin-2-yl)imidazo[1,2-a]pyrazine]
- IC50 [1]: 0.5 to 5 µM
- Ki (GCN2 kinase): 0.01 to 0.1 µM

Compound: Cc1n[nH]cc1C1CCCN(c2ccnc(-c3cnc4cnc(C(F)F)cn34)n2)C1 (stereo not drawn) [IV-97, 6-(Difluoromethyl)-3-(4-(3-(3-methyl-1H-pyrazol-4-yl)piperidin-1-yl)pyrimidin-2-yl)imidazo[1,2-a]pyrazine]
- IC50 [1]: > 5 µM
- Ki (GCN2 kinase): 0.01 to 0.1 µM

Compound: O=C1CCC2CN(c3ccnc(-c4cnc5cnc(C(F)F)cn45)n3)CCN12 (stereo not drawn) [IV-98, 2-(2-(6-(Difluoromethyl)imidazo[1,2-a]pyrazin-3-yl)pyrimidin-4-yl)hexahydropyrrolo[1,2-a]pyrazin-6(2H)-one]
- IC50 [1]: > 5 µM
- Ki (GCN2 kinase): 0.1 to 1 µM

Compound: O=C1CCCC2CN(c3ccnc(-c4cnc5cnc(C(F)F)cn45)n3)CCN12 (stereo not drawn) [IV-99, 2-(2-(6-(Difluoromethyl)imidazo[1,2-a]pyrazin-3-yl)pyrimidin-4-yl)octahydro-6H-pyrido[1,2-a]pyrazin-6-one]
- IC50 [1]: > 5 µM
- Ki (GCN2 kinase): 0.1 to 1 µM

Compound: O=C1OCC2CN(c3ccnc(-c4cnc5cnc(C(F)F)cn45)n3)CCN12 (stereo not drawn) [IV-100, 7-(2-(6-(Difluoromethyl)imidazo[1,2-a]pyrazin-3-yl)pyrimidin-4-yl)hexahydro-3H-oxazolo[3,4-a]pyrazin-3-one]
- IC50 [1]: > 5 µM
- Ki (GCN2 kinase): 0.1 to 1 µM

Compound: NS(=O)(=O)N1CCCN(c2ccnc(-c3cnc4cnc(C(F)F)cn34)n2)CC1 [IV-101, 4-(2-(6-(Difluoromethyl)imidazo[1,2-a]pyrazin-3-yl)pyrimidin-4-yl)-1,4-diazepane-1-sulfonamide]
- IC50 [1]: > 5 µM
- Ki (GCN2 kinase): 0.1 to 1 µM

Compound: FC(F)c1cn2c(-c3nccc(N4CCC(C5CCOCC5)C4)n3)cnc2cn1 (stereo not drawn) [IV-102, 6-(Difluoromethyl)-3-(4-(3-(tetrahydro-2H-pyran-4-yl)pyrrolidin-1-yl)pyrimidin-2-yl)imidazo[1,2-a]pyrazine]
- IC50 [1]: > 5 µM
- Ki (GCN2 kinase): 0.1 to 1 µM

Compound: FC(F)c1cn2c(-c3nccc(N4CCCCC4)n3)cnc2cn1 [IV-103, 6-(Difluoromethyl)-3-(4-(piperidin-1-yl)pyrimidin-2-yl)imidazo[1,2-a]pyrazine]
- IC50 [1]: > 5 µM
- Ki (GCN2 kinase): 0.1 to 1 µM

Compound: FC(F)c1cn2c(-c3nccc(N4CCOCC4)n3)cnc2cn1 [IV-104, 4-(2-(6-(Difluoromethyl)imidazo[1,2-a]pyrazin-3-yl)pyrimidin-4-yl)morpholine]
- IC50 [1]: > 5 µM
- Ki (GCN2 kinase): 0.1 to 1 µM

Compound: FC(F)c1cn2c(-c3nccc(N4CCCCCC4)n3)cnc2cn1 [IV-105, 3-(4-(Azepan-1-yl)pyrimidin-2-yl)-6-(difluoromethyl)imidazo[1,2-a]pyrazine]
- IC50 [1]: > 5 µM
- Ki (GCN2 kinase): 0.1 to 1 µM

Compound: CC1CCN(c2ccnc(-c3cnc4cnc(C(F)F)cn34)n2)CC1C(N)=O (stereo not drawn) [IV-108, 1-(2-(6-(Difluoromethyl)imidazo[1,2-a]pyrazin-3-yl)pyrimidin-4-yl)-4-methylpiperidine-3-carboxamide]
- IC50 [1]: 0.5 to 5 µM
- Ki (GCN2 kinase): 0.01 to 0.1 µM

Source: patent US10988477B2 (Merck Patent GmbH, priority 2018, dated 2021)
